Consider one molecule from publication PMC9971056 (JHEP Reports, 2022).

Where only a bound is given, the exact number is not on record here.

The subject of this data set is HepG2 cells. Put plainly: LD50 in HepG2 cells. It counts as cell-based, Human.

For the molecule `CC1(C)CC[C@]2(C(=O)O)CC[C@]3(C)[C@H](C(=O)C=C4[C@@]5(C)C=C(C#N)C(=O)C(C)(C)[C@@H]5CC[C@]43C)[C@@H]2C1` [bardoxolone], the “LD50 in HepG2 cells” value was under 1 µM.
